pIC50: −log10 of the molar value. Where “and” joins values, the source holds several entries; their conditions need not be identical. Equal entries are not always repeated.
Key:
[1] = test system: phospho-(pan)-PKC; assay: Phospho-; format: cell-based, human; conditions: HT-29, 2 hr, EGF stimulated, Western blot
[2] = LogP; format: physicochemical
[3] = Pharmacokinetic study, plasma concentration in mice; format: in vivo, mouse
[4] = test system: phospho-Ser241 PDK1; assay: Phospho-Ser241 PDK1 Western analysis in HT-29 cells; format: cell-based, human; conditions: HT-29, 2 hr, EGF stimulated, Western blot
[5] = test system: phospho-Ser473 AKT; assay: Inhibition of phospho-Ser473 AKT by Western analysis in HT-29 cells; format: cell-based, human
[6] = test system: HT-29 colon cancer xenografts; assay: Anti-tumor activity, HT-29 colon cancer xenografts in scid mice; format: in vivo, mouse; conditions: orally daily for 5 days at 250 mg/kg
[7] = test system: tumor phospho-Ser473 AKT; assay: Pharmacodynamic study, tumor phospho-Ser473 AKT in HT-29 xenografts; format: in vivo, mouse
[8] = Toxicity studies in mice; format: in vivo, mouse
[9] = test system: phospho-Ser473 AKT; assay: Inhibition of phospho-Ser473 AKT by Western analysis in NIH3T3 cells; format: cell-based; conditions: Mus musculus, NIH3T3, read-out: AKT inhibition (IC50) NIH3T3
[10] = Solubility; format: physicochemical
[11] = Metabolic stability, incubation with HT-29 cells in DMEM at 37°C; format: in vitro ADME; conditions: human
[12] = 24 hr after a single dose 250 mg/kg
[13] = five daily doses at 250 mg/kg ip

## CC1=NN(C(=O)c2ccc(Cl)cc2)C(=O)C1N=Nc1ccc(S(=O)(=O)Nc2ncccn2)cc1 (centres unmarked) [Compound 1, 4-[1-(4-Chlorobenzoyl)-3-methyl-5-oxo-4,5-dihydro-1H-pyrazol-4-ylazo]-N-pyrimidin-2-yl-benzenesulfonamide]
[1]
  phosphorylation of PKC: decreased
[2]
  logP: 2.1
[3]; single dose 250 mg/kg ip
  peak plasma concentration, ip: 1.4 µM
[3]; single dose 250 mg/kg oral
  peak plasma concentration, oral: 0.6 µM
[4]
  phosphorylation of PDK: decreased
[5]; HT-29, 2 hr, EGF stimulated, Western blot
  AKT phosphorylation, concentration response: decreased in a concentration-dependent manner
[5]; Homo sapiens, HT-29, read-out: AKT inhibition (IC50) HT-29
  pIC50: 4.89
[6]
  anti-tumor activity: no activity
[7]; 4 hr after a single dose 250 mg/kg
  inhibition of tumor phospho-Ser473 AKT at 4 hr: small inhibition
[7]; [12]
  inhibition of tumor phospho-Ser473 AKT at 24 hr: no inhibition
  total AKT in tumor compared to actin loading control: significant decrease
[8]; [13]
  body weight, blood lymphocyte, red blood cell and platelet count, AST, ALT: no change
  neutropenia: moderate neutropenia
[8]; single dose up to 250 mg/kg, ip, mice
  toxicity, single dose: no toxicity
[9]
  pIC50: 5.40
[10]
  solubility: very insoluble and 17.9 µM
[11]
  half-life: 1.03 h

Reference: publication PMC2727864 (Molecular cancer therapeutics, 2008)
